Reference: US20080009480A1, “CYCLOPENTA[b][1,4]DIAZEPINO[6,7,1-hi]INDOLES AND DERIVATIVES” (Wyeth, priority 2000, published 2008)
Where two headings read alike, the source gives them in different places.

What was measured:
[1] = molecular target: T1, human 5-hydroxytryptamine2C (h5HT2C) receptor (Homo sapiens, UniProt P28335); test: 5HT2C receptor binding test procedure ([125I]DOI displacement, CHO cell membranes)
T1 sequence (P28335 33-458): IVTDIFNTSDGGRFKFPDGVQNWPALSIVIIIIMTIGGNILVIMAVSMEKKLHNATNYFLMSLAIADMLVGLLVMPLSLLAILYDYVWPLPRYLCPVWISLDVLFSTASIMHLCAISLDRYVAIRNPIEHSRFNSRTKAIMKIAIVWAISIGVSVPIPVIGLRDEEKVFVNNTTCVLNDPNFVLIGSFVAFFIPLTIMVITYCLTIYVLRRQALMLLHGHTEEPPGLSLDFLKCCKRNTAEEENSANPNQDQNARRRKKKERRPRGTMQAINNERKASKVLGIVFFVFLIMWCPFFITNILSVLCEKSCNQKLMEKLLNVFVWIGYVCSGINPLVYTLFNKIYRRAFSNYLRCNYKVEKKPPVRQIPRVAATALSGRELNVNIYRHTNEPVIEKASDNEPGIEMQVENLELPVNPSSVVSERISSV

human 5-HT2C receptor = molecular target: T2, human 5-HT2C receptor (Homo sapiens, UniProt P28335); test: Stimulation of [3H] inositol monophosphate production by 5HT2C agonists in transfected CHO cells; type: cell-based; conditions: read-out: 5HT2C % Emax (5HT, 100%)
T2 construct: expressed in transfected cells; host or cells: CHO cells
T2 sequence (P28335 33-458): T1 sequence (P28335 33-458)
Protocol: One (1) ml of maintenance medium containing 1 μCi/ml myo-[^3H] inositol was added to each well. After 48 hours labeling, the cells were washed once with 0.5 ml DMEM containing 25 mM HEPES and 10 mM LiCl, then preincubated with the medium for 30 min (antagonists were included in this period if tested). At the end of the preincubation, the medium was removed, the cells were then incubated with test compounds (in presence of antagonists if needed) for 30 min. The reaction was terminated by removal of the incubation solution and addition of 0.5 ml ice-cold 5% PCA, followed by 15 to 30 min incubation on ice. 200 μl of 0.5 M Tes/1.5 M K2CO3 was added to each well to neutralize to pH 7, and plates were left on ice for another 15 to 30 min to precipitate all salts. The liquid and solid phases were separated by centrifugation.
A portion (350 μl) of the upper aqueous phase was applied to Dowex AG-1X8 (formate form, 100-200 mesh) columns. The columns were then washed stepwise with 10 ml of water and 10 ml of 25 mM ammonium formate to remove free myo-[^3H]inositol and deacylated phosphoinositol, respectively. Finally 10 ml of 0.2 M ammonium formate solution was applied to the columns to elute [^3H] inositol monophosphate ([^3H] IP1) directly into scintillationvials.
A 3-parameter logistic function is used to generate estimate of EC50/IC50.

male Sprague-Dawley rats = test: Effects of compounds on feeding behavior in rats (24 hr fast, 2 hour food intake); type: in vivo, rat; conditions: ip, dose giving 50% reduction in food intake
Protocol: Effects of Compounds on Feeding Behavior in Rats
Eight (8) male Sprague-Dawley rats weighing 150-180 g were separated into individual cages and acclimated to a powdered diet for 2 weeks. During this period and throughout the test procedure, the food cup and the animals were weighed daily. Following the acclimation period, animals were fasted for 24 hours and then injected with either vehicle or one of 4 doses of the test compound. Food intake was assessed at 2 and 24 hours following compound administration. Compounds to be evaluated were injected 1-2× per week until all animals had received all doses of the test compound. The order of doses were chosen using to a modified Latin Square design. Additional studies may be conducted in satieted rats at the start of the dark cycle. Compounds were injected i.p, s.c. or p.o. At the end of the study effects of the test compound on food intake was evaluated using a repeated measures ANOVA. Data were collected were 2 hour food intake (g). Data were subjected to one-way ANOVA with posthoc t-tests to assess group differences. Where appropriate, ED50 values were calculated.

[2] = rat; Martin et al. 1989; cited from earlier work
[3] = several animal species and humans; Cowen et al. 1995; cited from earlier work
[4] = 5-HT2C Affinity DOI/Agonist Binding (Ki, μM), [125I]DOI agonist binding

With C[C@@H]1NCCN2c3c1cccc3[C@@H]1CCC[C@@H]12 (relative stereo) [Example 12, rel-(4S,7bS,10aS)-4-Methyl-1,2,3,4,8,9,10,10a-Octahydro-7bH-Cyclopenta[b][1,4]Diazepino[6,7,1-hi]Indole] the Ki [1, 4] was > 5 µM.
Compound C[C@H]1NCCN2c3c1cccc3[C@@H]1CCC[C@@H]12 (relative stereo) [Example 13, rel-(4R,7bS,10aS)-4-Methyl-1,2,3,4,8,9,10,10a-Octahydro-7bH-Cyclopenta[b][1,4]Diazepino[6,7,1-hi]Indole] has a Ki [1, 4] of 0.31 µM.
Compound CC1CN2c3c(cccc3C3CCCC32)CN1 (single isomer, unassigned) [Example 7] has a Ki [1, 4] of 6 µM.
CC1CN2c3c(cccc3C3CCCC32)CN1 (single isomer, unassigned) [Example 8] gave a Ki [1, 4] of 5.9 µM.
In the case of CC1CN2c3c(cccc3C3CCCC32)CN1 (single isomer, unassigned) [Example 9], the Ki [1, 4] is reported as 0.91 µM.
In the case of CC1CN2c3c(cccc3C3CCCC32)CN1 (single isomer, unassigned) [Example 10], the Ki [1, 4] is reported as 4.3 µM.
Work on OC[C@H]1CN2c3c(cccc3C3CCCC32)CN1 (single isomer, unassigned) [Example 11] yielded a Ki [1, 4] of 1.9 µM.
In the case of c1cc2c3c(c1)c1c(n3CCNC2)CCC1 [Example 1, 1,2,3,4,9,10-Hexahydro-8H-cyclopenta[b][1,4]diazepino[6,7,1-hi]indole], the melting point is reported as 66 to 68 °C.
In the case of c1cc2c3c(c1)C1CCCC1N3CCNC2 (stereo not drawn) [Example 2, 1,2,3,4,8,9,10,10a-octahydro-7bH-cyclopenta[b][1,4]diazepino[6,7,1-hi]indole], the Emax (human 5-HT2C receptor) is reported as 110% and the ED50 (male Sprague-Dawley rats; Rattus norvegicus, read-out: ED50) is reported as 8.05 mg/kg.
With c1cc2c3c(c1)[C@@H]1CCC[C@@H]1N3CCNC2 [Example 4A, (7bS,10aS)-1,2,3,4,8,9,10,10a-octahydro-7bH-cyclopenta-[b][1,4]diazepino-[6,7,1-hi]indole] the Emax (human 5-HT2C receptor) was 40%.
For c1cc2c3c(c1)[C@H]1CCC[C@H]1N3CCNC2 [Example 4B, 7bR,10aR)-1,2,3,4,8,9,10,10a-octahydro-7bH-cyclopenta-[b][1,4]diazepino[6,7,1-hi]indole], the “ED50” value (male Sprague-Dawley rats) was 2.93 mg/kg.
In the case of Cc1cc2c3c(c1)c1c(n3CCNC2)CCC1 [Example 6, 6-Methyl-1,2,3,4,9,10-hexahydro-8H-cyclopenta[b][1,4]diazepino[6,7,1-hi]indole], the melting point is reported as 168 to 170 °C and the Ki ([1]; read-out: 5HT2C Affinity DOI/Agonist binding (Ki), [125I]DOI agonist binding) is reported as 0.985 µM.
Work on CSc1ccc2c(c1)C(N1CCN(C)CC1)Cc1ccccc1S2 (stereo not drawn) [Methiothepin, reference compound] yielded a Ki ([1]; reference compounds, [125I]DOI binding, h5HT2C in CHO membranes, read-out: Ki value and 95% confidence interval) of 0.0046 µM.
For COc1cc(CC(C)N)c(OC)cc1I (stereo not drawn) [[^125I] DOI, reference compound], the Kd ([1]; read-out: dissociation constant, KD of [125I] DOI at the human serotonin 5HT2C receptor, saturation binding with increasing concentrations of [125I] DOI) was 0.0004 µM.
For Clc1cccc(N2CCNCC2)c1 [mCPP, meta-chlorophenylpiperazine], the “effect on conditioned avoidance responding (CAR)” value [2] is given as “block conditioned avoidance responding” and the “effect on food intake” value [3] is given as “decreases food intake”.
